According to US9686984B2, “Macrocyclic picolinamides as fungicides” (DOW AGROSCIENCES LLC, priority 2014, dated 2017):
Read-outs that look alike come from different tables or passages of the source.

Assays:
[1] = test system: Puccinia triticina; assay: Wheat Brown Rust (PUCCRT) disease control on wheat seedlings; format: in vivo; details: for pest or weed control at 121.5 g/ha: Low Volume (121.5 g/H); for pest or weed control at 100 µg/mL: High Volume (100 ppm)
Method: Technical grades of materials were dissolved in acetone, which were then mixed with nine volumes of water containing 110 ppm Triton X-100. The fungicide solutions were applied onto wheat seedlings using an automated booth sprayer to run-off. All sprayed plants were allowed to air dry prior to further handling. All fungicides were evaluated using the aforementioned method for their activity vs. all target diseases, unless stated otherwise. Wheat leaf blotch and brown rust activity were also evaluated using track spray applications, in which case the fungicides were formulated as EC formulations, containing 0.1% Trycol 5941 in the spray solutions. Wheat plants (variety Yuma) were grown from seed in a greenhouse in 50% mineral soil/50% soil-less Metro mix until the first leaf was fully emerged, with 7-10 seedlings per pot. These plants were inoculated with an aqueous spore suspension of Septoria tritici either prior to or after fungicide treatments. After inoculation the plants were kept in 100% relative humidity (one day in a dark dew chamber followed by two to three days in a lighted dew chamber at 20° C.) to permit spores to germinate and infect the leaf. The plants were then transferred to a greenhouse set at 20° C. for disease to develop. When disease symptoms were fully expressed on the 1st leaves of untreated plants, infection levels were assessed on a scale of 0 to 100 percent disease severity. Percent disease control was calculated using the ratio of disease severity on treated plants relative to untreated plants. Example B: Evaluation of Fungicidal Activity: Wheat Brown Rust (Puccinia triticina; Synonym: Puccinia recondita f. sp. tritici; Bayer code PUCCRT) Wheat plants (variety Yuma) were grown from seed in a greenhouse in 50% mineral soil/50% soil-less Metro mix until the first leaf was fully emerged, with 7-10 seedlings per pot. These plants were inoculated with an aqueous spore suspension of Puccinia triticina either prior to or after fungicide treatments. After inoculation the plants were kept in a dark dew room at 22° C. with 100% relative humidity overnight to permit spores to germinate and infect the leaf. The plants were then transferred to a greenhouse set at 24° C. for disease to develop. Fungicide formulation, application and disease assessment followed the procedures as described in the Example A.

[2] = test system: Zymoseptoria tritici; assay: Leaf Blotch of Wheat (SEPTTR) disease control on wheat seedlings; format: in vivo; details: for pest or weed control at 121.5 g/ha: Low Volume (121.5 g/H); for pest or weed control at 100 µg/mL: High Volume (100 ppm)
Method: Example A: Evaluation of Fungicidal Activity: Leaf Blotch of Wheat (Mycosphaerella graminicola; Anamorph: Zymoseptoria tritici; Bayer code […]) Technical grades of materials were dissolved in acetone, which were then mixed with nine volumes of water containing 110 ppm Triton X-100. The fungicide solutions were applied onto wheat seedlings using an automated booth sprayer to run-off. All sprayed plants were allowed to air dry prior to further handling. All fungicides were evaluated using the aforementioned method for their activity vs. all target diseases, unless stated otherwise. Wheat leaf blotch and brown rust activity were also evaluated using track spray applications, in which case the fungicides were formulated as EC formulations, containing 0.1% Trycol 5941 in the spray solutions. Wheat plants (variety Yuma) were grown from seed in a greenhouse in 50% mineral soil/50% soil-less Metro mix until the first leaf was fully emerged, with 7-10 seedlings per pot. These plants were inoculated with an aqueous spore suspension of Septoria tritici either prior to or after fungicide treatments. After inoculation the plants were kept in 100% relative humidity (one day in a dark dew chamber followed by two to three days in a lighted dew chamber at 20° C.) to permit spores to germinate and infect the leaf. The plants were then transferred to a greenhouse set at 20° C. for disease to develop. When disease symptoms were fully expressed on the 1st leaves of untreated plants, infection levels were assessed on a scale of 0 to 100 percent disease severity. Percent disease control was calculated using the ratio of disease severity on treated plants relative to untreated plants.

[3] = 24 h, 1 Day Protectant, read-out: PUCCRT disease control, 1 DP
[4] = 72 h, 3 Day Curative, read-out: PUCCRT disease control, 3 DC
[5] = 24 h, 1 Day Protectant, read-out: SEPTTR disease control, 1 DP
[6] = 72 h, 3 Day Curative, read-out: SEPTTR disease control, 3 DC

Structure (SMILES)	melting point [°C]	pest or weed control at 121.5 g/ha [1, 3] [%]	pest or weed control at 121.5 g/ha [1, 4] [%]	pest or weed control at 121.5 g/ha [2, 5] [%]	pest or weed control at 121.5 g/ha [2, 6] [%]	pest or weed control at 100 µg/mL [1, 3] [%]	pest or weed control at 100 µg/mL [1, 4] [%]	pest or weed control at 100 µg/mL [2, 5] [%]	pest or weed control at 100 µg/mL [2, 6] [%]
CCCC[C@H]1[C@H](C)OC(=O)[C@@H](N)CCO[C@@H]1COc1ccccc1.Cl	195 to 197	–	–	–	–	–	–	–	–
CCCC[C@H]1[C@H](C)OC(=O)[C@@H](NC(=O)c2nccc(OC)c2OCOC(C)=O)CCO[C@@H]1CCc1ccccc1 [Compound 31]	–	> 70	> 70	> 70	> 70	–	–	–	–
CCCC[C@H]1[C@H](C)OC(=O)[C@@H](NC(=O)c2nccc(OC)c2OCOC(C)=O)CCO[C@@H]1COC(=O)C(C)C [Compound 32]	–	> 70	> 70	> 70	> 70	–	–	–	–
CCCC[C@H]1[C@H](C)OC(=O)[C@@H](NC(=O)c2nccc(OC)c2OCOC(C)=O)CCO[C@@H]1CC [Compound 34]	–	> 70	> 70	< 70	< 70	–	–	–	–
CCCC[C@H]1[C@H](C)OC(=O)[C@@H](NC(=O)c2nccc(OC)c2OCOC(C)=O)CCO[C@@H]1COc1ccccc1 [Compound 35]	–	> 70	> 70	> 70	> 70	–	–	–	–
COc1ccnc(C(=O)N[C@H]2CCOC[C@@H](Cc3ccccc3)[C@H](C)OC2=O)c1OCOC(=O)C(C)C [Compound 36]	–	> 70	> 70	> 70	< 70	–	–	–	–
COc1ccnc(C(=O)N[C@H]2CCO[C@H](Cc3ccccc3)[C@@H](Cc3ccccc3)[C@H](C)OC2=O)c1OCOC(=O)C(C)C [Compound 37, ((2-(((2R,3S,4S,7S)-2,3-dibenzyl-4-methyl-6-oxo-1,5-dioxonan-7-yl)carbamoyl)-4-methoxypyridin-3-yl)oxy)methyl isobutyrate]	–	> 70	> 70	> 70	> 70	–	–	–	–
COc1ccnc(C(=O)N[C@H]2CCO[C@H](CCc3ccccc3)[C@@H](Cc3ccc(F)cc3)[C@H](C)OC2=O)c1OCOC(=O)C(C)C [Compound 38]	–	> 70	> 70	> 70	> 70	–	–	–	–
CCCC[C@H]1[C@H](C)OC(=O)[C@@H](NC(=O)c2nccc(OC)c2OCOC(=O)C(C)C)CCO[C@@H]1COc1ccccc1 [Compound 41]	–	> 70	> 70	> 70	> 70	–	–	–	–
CCOCC(=O)OCOc1c(OC)ccnc1C(=O)N[C@H]1CCOC[C@@H](Cc2ccccc2)[C@H](C)OC1=O [Compound 42, ((2-(((3R,4S,7S)-3-benzyl-4-methyl-6-oxo-1,5-dioxonan-7-yl)carbamoyl)-4-methoxypyridin-3-yl)oxy)methyl 2-ethoxyacetate]	–	> 70	> 70	> 70	> 70	–	–	–	–
CCOCC(=O)OCOc1c(OC)ccnc1C(=O)N[C@H]1CCO[C@H](Cc2ccccc2)[C@@H](Cc2ccccc2)[C@H](C)OC1=O [Compound 44]	–	> 70	> 70	> 70	> 70	–	–	–	–
CCCC[C@H]1[C@H](C)OC(=O)[C@@H](NC(=O)c2nccc(OC)c2OCOC(=O)COCC)CCO[C@@H]1CCc1ccccc1 [Compound 45]	–	> 70	> 70	> 70	> 70	–	–	–	–
CCCC[C@H]1[C@H](C)OC(=O)[C@@H](NC(=O)c2nccc(OC)c2OCOC(=O)COCC)CCO[C@@H]1CC [Compound 46]	–	> 70	> 70	> 70	< 70	–	–	–	–
CCCC[C@H]1[C@H](C)OC(=O)[C@@H](NC(=O)c2nccc(OC)c2OCOC(=O)COCC)CCO[C@@H]1COc1ccccc1 [Compound 47]	–	> 70	> 70	> 70	> 70	–	–	–	–
CCOCC(=O)Oc1c(OC)ccnc1C(=O)N[C@H]1CCOC[C@@H](Cc2ccccc2)[C@H](C)OC1=O [Compound 48, 2-(((3R,4S,7S)-3-benzyl-4-methyl-6-oxo-1,5-dioxonan-7-yl)carbamoyl)-4-methoxypyridin-3-yl 2-ethoxyacetate]	–	> 70	> 70	< 70	< 70	–	–	–	–
CC[C@H]1OCC[C@H](NC(=O)c2nccc(OC)c2O)C(=O)O[C@@H](C)[C@@H]1Cc1ccc(F)cc1 [Compound 55]	–	–	–	–	–	> 70	> 70	> 70	> 70
CCCC[C@H]1OCC[C@H](NC(=O)c2nccc(OC)c2O)C(=O)O[C@@H](C)[C@@H]1Cc1ccc(F)cc1 [Compound 56]	–	–	–	–	–	> 70	> 70	< 70	> 70
COc1ccnc(C(=O)N[C@H]2CCO[C@H](CCc3ccccc3)[C@@H](Cc3ccc(F)cc3)[C@H](C)OC2=O)c1O [Compound 57, N-((2R,3S,4S,7S)-3-(4-fluorobenzyl)-4-methyl-6-oxo-2-phenethyl-1,5-dioxonan-7-yl)-3-hydroxy-4-methoxypicolinamide]	–	–	–	–	–	> 70	< 70	> 70	> 70
COc1ccnc(C(=O)N[C@H]2CCO[C@H](CCc3ccccc3)[C@@H](CCC(C)C)[C@H](C)OC2=O)c1O [Compound 59]	–	–	–	–	–	> 70	> 70	> 70	> 70
COc1ccnc(C(=O)N[C@H]2CCOC[C@@H](CCC(C)C)[C@H](C)OC2=O)c1O [Compound 63]	49 to 53	–	–	–	–	–	–	–	–
CCCC[C@H]1[C@H](C)OC(=O)[C@@H](NC(=O)c2nccc(OC)c2O)CCO[C@@H]1CCc1ccccc1 [Compound 64]	–	–	–	–	–	> 70	> 70	> 70	> 70
CCCC[C@H]1[C@H](C)OC(=O)[C@@H](NC(=O)c2nccc(OC)c2O)CCO[C@@H]1COc1ccccc1 [Compound 68]	–	–	–	–	–	> 70	> 70	> 70	< 70
CC(C)CC[C@H]1[C@H](C)OC(=O)[C@@H](NC(=O)OC(C)(C)C)CCO[C@@H]1CCc1ccc(F)cc1 [Compound 100]	39 to 44	–	–	–	–	–	–	–	–
CC(C)CC[C@H]1[C@H](C)OC(=O)[C@@H](NC(=O)OC(C)(C)C)CCO[C@@H]1Cc1ccccc1 [Compound 102]	41 to 44	–	–	–	–	–	–	–	–
CC(C)CC[C@@H]1COCC[C@H](NC(=O)OC(C)(C)C)C(=O)O[C@H]1C [Compound 103]	110 to 112	–	–	–	–	–	–	–	–
